Measured values: patent US20250352608A1, “POLYPEPTIDES HAVING ANTI-INFLAMMATORY EFFECTS AND USES THEREOF” (OneSkin, Inc., priority 2020, published 2025)

Assays:
[1] = test system: peripheral blood mononuclear cells (PBMCs); test: PBMC proliferation with PHA activation (MTT); format: cell-based, human; details: single agent, 5 days (Peptide 14 3.12 μM; rapamycin 100 nM; PHA 5 μg/mL)
Description: The effect of Peptide 14 on T cell activation was assessed by treating PBMCs stimulated with phytohaemagglutinin (PHA) with Peptide 14. PHA usually can trigger lymphocyte activation and cell division. PBMCs that were untreated with PHA or Peptide 14 served as negative control of lymphocyte activation. In the phytohaemagglutinin group, the PBMCs were activated with 5 μg/mL of PHA for 5 days. In the Peptide 14 and PHA group, the PBMCs were activated with 5 μg/mL of PHA and treated with 3.12 μM of Peptide 14 for 5 days. In the Peptide 14 group, the PBMCs were treated with 3.12 μM of Peptide 14 for 5 days. In the rapamycin group, the PBMCs were treated with 100 nM of rapamycin, a well-known immunosuppressive drug for 5 days. In the rapamycin+PHA group, the PBMCs were activated with 5 μg/mL of PHA and treated with 100 nM of rapamycin for 5 days. The viability and proliferation of PBMCs were analyzed by MTT assay. Briefly, after 5 days of treatment, the cells were incubated with […] MTT reagent for 4 hours. Then, 100 μL of DMSO was added into each well, and the absorbance was detected at 595 nm.

[2] = test system: peripheral blood mononuclear cells (PBMCs); test: PBMC mRNA of IFN-γ and IL-10 (RT-qPCR); format: cell-based, human; details: single agent, 5 days (Peptide 14 3.12 μM; rapamycin 100 nM; PHA 5 μg/mL)
Description: The effect of Peptide 14 on T cell activation was assessed by treating PBMCs stimulated with phytohaemagglutinin (PHA) with Peptide 14. PHA usually can trigger lymphocyte activation and cell division. PBMCs that were untreated with PHA or Peptide 14 served as negative control of lymphocyte activation. In the phytohaemagglutinin group, the PBMCs were activated with 5 μg/mL of PHA for 5 days. In the Peptide 14 and PHA group, the PBMCs were activated with 5 μg/mL of PHA and treated with 3.12 μM of Peptide 14 for 5 days. In the Peptide 14 group, the PBMCs were treated with 3.12 μM of Peptide 14 for 5 days. In the rapamycin group, the PBMCs were treated with 100 nM of rapamycin, a well-known immunosuppressive drug for 5 days. In the rapamycin+PHA group, the PBMCs were activated with 5 μg/mL of PHA and treated with 100 nM of rapamycin for 5 days. […] IFN-γ is typically produced in lymphocytes stimulated by PHA and may be used as marker of PBMC stimulation level. IL-10 is an anti-inflammatory cytokine. The cells from each of the experimental groups were processed for total RNA isolation, reverse transcription of the RNA and RT-qPCR. Data is represented as relative expression normalized to ubiquitous gene expression and untreated PBMC negative control.

phytohaemagglutinin [PHA]
relative PBMC proliferation, % of negative control [1]: about 130% | relative expression level of IFN-γ vs negative control [2]: about 15 fold | relative expression level of IL-10 (negative control = 1) [2]: near zero
